# pIC50: −log10 of the molar value.
# Target: T1, Tyrosinase (Homo sapiens, UniProt P14679)
# T1 sequence (P14679 whole entry): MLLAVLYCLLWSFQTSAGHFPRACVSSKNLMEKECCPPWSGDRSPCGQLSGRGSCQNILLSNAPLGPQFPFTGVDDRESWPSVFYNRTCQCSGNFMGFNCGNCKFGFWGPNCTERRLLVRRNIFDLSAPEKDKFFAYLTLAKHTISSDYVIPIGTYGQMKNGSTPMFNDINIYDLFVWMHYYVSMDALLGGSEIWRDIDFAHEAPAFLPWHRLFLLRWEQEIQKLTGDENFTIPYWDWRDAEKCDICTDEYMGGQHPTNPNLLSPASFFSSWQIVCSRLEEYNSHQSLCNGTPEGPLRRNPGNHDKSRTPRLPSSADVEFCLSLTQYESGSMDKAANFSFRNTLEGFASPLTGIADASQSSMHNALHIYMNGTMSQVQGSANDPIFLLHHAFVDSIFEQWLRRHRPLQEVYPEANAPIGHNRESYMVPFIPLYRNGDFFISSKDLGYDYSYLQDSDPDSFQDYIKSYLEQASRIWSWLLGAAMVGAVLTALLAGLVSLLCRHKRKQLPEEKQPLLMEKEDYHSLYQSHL
# Experiment: Inhibitory activity against tyrosinase
row,SMILES,pIC50
1,C[C@@H]1C[C@H]2O[C@]3(C[C@@]4(C)[C@@H]5[C@@H](O)C[C@H]6C(C)(C)[C@@H](O[C@@H]7OC[C@@H](O)[C@H](O)[C@H]7O)CC[C@@]67C[C@@]57CC[C@]4(C)[C@@H]13)O[C@@H]2C(C)(C)O[C@@H]1O[C@H](CO)[C@@H](O)[C@H](O)[C@H]1O [CYCLOORBICOSIDE G],4.26
2,CC(=O)O[C@@H]1[C@@H](O[C@@H]2OC[C@H](O)[C@H](O)[C@H]2O)[C@H](O[C@H]2CC[C@]34C[C@]35CC[C@]3(C)[C@@H]([C@@]6(C)CC[C@H](C(C)(C)O)O6)[C@@H](O)C[C@@]3(C)[C@@H]5C[C@H](O[C@@H]3OC[C@@H](O)[C@H](O)[C@H]3O)[C@H]4C2(C)C)OC[C@H]1O [ASKENDOSIDE B],4.86
3,CC(C)(O)CCC(=O)[C@@](C)(O)[C@H]1[C@H](O)C[C@@]2(C)[C@@H]3CC=C4[C@@H](C=C(O[C@@H]5O[C@H](CO)[C@@H](O)[C@H](O)[C@H]5O)C(=O)C4(C)C)[C@]3(C)C(=O)C[C@]12C [BRYOAMARIDE],4.07
4,C[C@@H]1O[C@@H](O[C@H]2C[C@@H]3[C@]4(CC[C@]5(C)[C@@H]([C@@]6(C)CC[C@@H](C(C)(C)O)O6)[C@@H](O)C[C@@]35C)C[C@@]43CC[C@H](O[C@@H]4OC[C@@H](O)[C@H](O)[C@H]4O)C(C)(C)[C@H]23)[C@H](O)[C@H](O)[C@H]1O [CYCLOCARPOSIDE],3.99
5,CC(C)(O)[C@@H]1CC[C@](C)([C@H]2[C@@H](O)C[C@@]3(C)[C@@H]4C[C@H](O[C@@H]5OC[C@@H](O)[C@H](O)[C@H]5O)[C@H]5C(C)(C)[C@@H](O[C@@H]6OC[C@@H](O)[C@H](O)[C@H]6O[C@@H]6OC[C@H](O)[C@H](O)[C@H]6O)CC[C@@]56C[C@@]46CC[C@]23C)O1 [ASKENDOSIDE D],4.31
6,CC(C)(O)[C@@H]1CC[C@](C)([C@H]2[C@@H](O)C[C@@]3(C)[C@@H]4C[C@H](O[C@H]5O[C@@H](CO)[C@H](O)[C@H](O)[C@@H]5O)[C@H]5C(C)(C)[C@@H](O[C@@H]6OC[C@@H](O)[C@H](O)[C@H]6O)CC[C@@]56C[C@@]46CC[C@]23C)O1 [CYCLOSIEVERSIOSIDE],4.04

# From ChEMBL document CHEMBL1148597, “New tyrosinase inhibitors selected by atomic linear indices-based classification models” (Bioorg Med Chem Lett, 2006)
